Data published in ChEMBL document CHEMBL4433254 (Bioorg Med Chem Lett, 2019).
pIC50: −log10 of the molar value. Converted amounts (≈) assume the structure as drawn.

What was measured:
[1] = Partition coefficient, log P of the compound; settings: octanol/water
[2] = Lipophilicity, log D of compound at pH 7.4; settings: buffer
Candida albicans = assay: Antifungal activity against Candida albicans; format: functional
Homo sapiens [3] = organism: Homo sapiens; assay: Selectivity index, ratio of IC50 for CYP11B1 (unknown origin) to ratio of IC50 for CYP11B2 (unknown origin)
CYP11B1 = target: T1, CYP11B1 (Homo sapiens, UniProt P15538); assay: Inhibition of CYP11B1 (unknown origin)
T1 sequence (P15538 whole entry): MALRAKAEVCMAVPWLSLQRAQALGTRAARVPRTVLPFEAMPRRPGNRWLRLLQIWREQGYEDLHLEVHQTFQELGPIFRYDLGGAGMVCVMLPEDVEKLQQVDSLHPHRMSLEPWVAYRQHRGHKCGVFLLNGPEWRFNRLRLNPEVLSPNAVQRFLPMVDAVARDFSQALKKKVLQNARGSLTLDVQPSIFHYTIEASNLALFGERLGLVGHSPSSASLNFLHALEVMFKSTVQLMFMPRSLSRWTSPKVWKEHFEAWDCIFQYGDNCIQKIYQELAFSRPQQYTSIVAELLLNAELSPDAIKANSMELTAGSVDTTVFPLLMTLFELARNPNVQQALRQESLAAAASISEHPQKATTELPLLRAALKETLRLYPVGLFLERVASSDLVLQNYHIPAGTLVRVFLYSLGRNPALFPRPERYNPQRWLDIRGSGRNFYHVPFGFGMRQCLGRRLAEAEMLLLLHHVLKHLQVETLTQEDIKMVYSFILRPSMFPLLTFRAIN

Homo sapiens [4] = organism: Homo sapiens; assay: Selectivity index, ratio of IC50 for human CYP11B1 expressed in hamster fibroblasts to ratio of IC50 human CYP11B2 expressed in hamster fibroblasts
[5] = target: T2, Cytochrome P450 11B2, mitochondrial (Homo sapiens, UniProt P19099); assay: Inhibition of human CYP11B2 expressed in hamster fibroblasts using deoxycorticosterone as substrate
T2 sequence (P19099 whole entry): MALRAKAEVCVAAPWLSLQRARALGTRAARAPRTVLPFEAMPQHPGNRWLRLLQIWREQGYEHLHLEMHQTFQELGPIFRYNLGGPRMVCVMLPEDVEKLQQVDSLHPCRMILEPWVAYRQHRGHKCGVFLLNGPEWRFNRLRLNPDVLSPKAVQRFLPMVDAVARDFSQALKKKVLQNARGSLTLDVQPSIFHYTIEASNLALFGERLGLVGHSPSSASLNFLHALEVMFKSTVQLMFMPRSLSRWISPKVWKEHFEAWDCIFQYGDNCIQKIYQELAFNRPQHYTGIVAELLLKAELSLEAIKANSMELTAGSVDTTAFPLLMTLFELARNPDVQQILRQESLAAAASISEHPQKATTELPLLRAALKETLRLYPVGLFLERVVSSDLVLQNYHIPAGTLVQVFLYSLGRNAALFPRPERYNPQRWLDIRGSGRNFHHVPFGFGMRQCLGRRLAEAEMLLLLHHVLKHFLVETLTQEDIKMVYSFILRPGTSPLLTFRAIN

[6] = target: T3, Cytochrome P450 11B1, mitochondrial (Homo sapiens, UniProt P15538); assay: Inhibition of human CYP11B1 expressed in hamster fibroblasts using deoxycorticosterone as substrate
T3 sequence (P15538 whole entry): T1 sequence (P15538 whole entry)

SMILES	MIC90 (Candida albicans) [µg/mL]	Ratio IC50 (Homo sapiens [3])	pIC50 (CYP11B1)	also measured
Clc1ccccc1C(c1ccccc1)(c1ccccc1)n1ccnc1 [CLOTRIMAZOLE]	1 (≈ 2.9 µM)	–	–	logP [1]: 5.05; logD [2]: 5.05
Cc1nnc2n1-c1cc(F)c(-c3cccnc3)cc1CC2	–	96	4.90	–
Clc1ccc(COC(Cn2ccnc2)c2ccc(Cl)cc2Cl)c(Cl)c1 (stereo not given) [MICONAZOLE]	0.5 (≈ 1.2 µM)	–	–	–
Fc1cc(-c2cccnc2)cc2c1-n1cnnc1CC2	–	94	4.79	–
OC(Cn1cncn1)(Cn1cncn1)c1ccc(F)cc1F [FLUCONAZOLE]	1 (≈ 3.27 µM)	–	–	–
CC(=O)N1CCN(c2ccc(OCC3COC(Cn4ccnc4)(c4ccc(Cl)cc4Cl)O3)cc2)CC1 (stereo not given) [KETOCONAZOLE]	0.25 (≈ 0.47 µM)	–	–	–
Fc1cc2c(cc1-c1cccnc1)CCc1nncn1-2	–	32	5.10	–
Cc1nnc2n1-c1c(F)cc(-c3cccnc3)cc1CC2	–	272	4.77	–
Clc1ccc(COC(Cn2ccnc2)c2ccc(Cl)cc2Cl)cc1 (stereo not given) [ECONAZOLE]	2 (≈ 5.24 µM)	–	–	logP [1]: 5.25; logD [2]: 5.25
CCC(=O)N1CCc2cc(-c3cccnc3)ccc21	–	–	–	Ratio IC50 (Homo sapiens [4]): 21; pIC50 [5]: 6.64; pIC50 [6]: 5.32
